The values below come from US7935670B2, “Hepatitis C virus inhibitors” (Bristol-Myers Squibb Company, priority 2006, dated 2011).

Like-named read-outs stand apart in the source and are kept apart here.

Test [1] addresses T1, human neutrophil elastase (HNE) (Homo sapiens, UniProt P08246).
T1 construct: purchased Sigma
T1 sequence (P08246 30-267): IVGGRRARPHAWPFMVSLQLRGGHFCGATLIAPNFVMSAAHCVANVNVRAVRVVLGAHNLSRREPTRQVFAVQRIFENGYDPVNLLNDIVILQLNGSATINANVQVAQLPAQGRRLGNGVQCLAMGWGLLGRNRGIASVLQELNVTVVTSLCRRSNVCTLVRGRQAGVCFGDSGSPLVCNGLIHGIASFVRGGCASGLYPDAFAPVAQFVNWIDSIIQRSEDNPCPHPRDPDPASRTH
As to the kind of experiment: Specificity assay, human neutrophil elastase. Particulars: 2 h enzyme-inhibitor pre-incubation; read-out: HLE activity (IC50) in the specificity assay. It is filed as biochemical. How it is done:
The specificities of compounds of the present disclosure were determined against a variety of serine proteases: human neutrophil elastase (HNE), porcine pancreatic elastase (PPE) and human pancreatic chymotrypsin and one cysteine protease: human liver cathepsin B. In all cases a 96-well plate format protocol using colorimetric p-nitroaniline (pNA) substrate specific for each enzyme was used as described previously (PCT Patent Application No. WO 00/09543) with some modifications to the serine protease assays. All enzymes were purchased from Sigma while the substrates were from Bachem.
Each assay included a 2 h enzyme-inhibitor pre-incubation at room temperature followed by addition of substrate and hydrolysis to ˜30% conversion as measured on a Spectramax Pro microplate reader. Compound concentrations varied from 100 to 0.4 μM depending on their potency.
50 mM Tris(hydroxymethyl)aminomethane hydrochloride (Tris-HCl) pH 8, 0.5 M Sodium Sulfate (Na2SO4), 50 mM NaCl, 0.1 mM EDTA, 3% DMSO, 0.01% Tween-20 with:
133 μM succ-AAA-pNA and 20 nM HNE or 8 nM PPE; 100 μM succ-AAPF-pNA and […] Chymotrypsin.
The percentage of inhibition was calculated using the formula: [1−((UVinh−UVblank)/(UVctl−UVblank))]×100
A non-linear curve fit was applied to the inhibition-concentration data, and the 50% effective concentration (IC50) was calculated by the use of Excel Xl-fit software.

For test [2], the target named is T2, HCV NS3/4A protease complex, BMS strain (UniProt P27958, species not given/STRAIN_BMS).
T2 construct: given for H77 and J4L6S, not expressly for BMS; fused on or other part: three-lysine solubilising tail at the end of NS4A (given for the H77 and J4L6S constructs)
T2 sequence (P27958 1027-1657, change not shown, one chain of several): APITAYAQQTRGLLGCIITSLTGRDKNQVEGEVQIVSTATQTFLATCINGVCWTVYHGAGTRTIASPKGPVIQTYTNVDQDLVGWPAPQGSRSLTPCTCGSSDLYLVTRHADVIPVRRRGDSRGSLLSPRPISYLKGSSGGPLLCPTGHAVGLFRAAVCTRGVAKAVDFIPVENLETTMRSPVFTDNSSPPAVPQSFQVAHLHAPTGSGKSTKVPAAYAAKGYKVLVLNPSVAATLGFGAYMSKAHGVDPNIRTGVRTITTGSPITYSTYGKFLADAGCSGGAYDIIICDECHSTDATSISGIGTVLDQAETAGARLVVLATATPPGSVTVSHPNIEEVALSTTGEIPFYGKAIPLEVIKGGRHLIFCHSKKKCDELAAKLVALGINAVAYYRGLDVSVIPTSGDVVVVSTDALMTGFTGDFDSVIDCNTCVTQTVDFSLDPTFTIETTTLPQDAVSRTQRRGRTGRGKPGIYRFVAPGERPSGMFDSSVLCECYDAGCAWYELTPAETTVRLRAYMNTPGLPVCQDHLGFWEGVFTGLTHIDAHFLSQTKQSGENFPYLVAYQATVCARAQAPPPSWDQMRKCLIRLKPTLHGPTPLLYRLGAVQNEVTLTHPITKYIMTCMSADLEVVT
As to the kind of experiment: FRET peptide assay to monitor HCV NS3/4A proteolytic activity (BMS strain). It is filed as biochemical, HCV genotype 1a. The source says:
HCV NS3 protease complexes, derived from the BMS strain, H77 strain or J4L6S strain, were generated, as described below. These purified recombinant proteins were generated for use in a homogeneous assay (see below) to provide an indication of how effective compounds of the present disclosure would be in inhibiting HCV NS3 proteolytic activity.
Serum from an HCV-infected patient was obtained from Dr. T. Wright, San Francisco Hospital. An engineered full-length cDNA (compliment deoxyribonucleic acid) template of the HCV genome (BMS strain) was constructed from DNA fragments obtained by reverse transcription-PCR(RT-PCR) of serum RNA (ribonucleic acid) and using primers selected on the basis of homology between other genotype 1a strains. From the determination of the entire genome sequence, a genotype 1a was assigned to the HCV isolate according to the classification of Simmonds et al. (See P Simmonds, K A Rose, S Graham, S W Chan, F McOmish, B C Dow, E A Follett, P L Yap and H Marsden, J. Clin. Microbiol., 31(6), 1493-1503 (1993)). […] The infectious clones, H77 (1a genotype) and J4L6S (1b genotype) were obtained from R. Purcell (NIH) and the sequences are published in Genbank (AAB67036, see Yanagi, M., Purcell, R. H., Emerson, S. U. and Bukh, J. Proc. Natl. Acad. Sci. U.S.A. 94(16), 8738-8743 (1997); AF054247, see Yanagi, M., St Claire, M., Shapiro, M., Emerson, S. U., Purcell, R. H. and Bukh, J, Virology 244 (1), 161-172. (1998)).
NS3/4A protease complex-containing fractions were pooled and loaded on a desalting column Superdex-S200 pre-equilibrated with buffer D (25 mM HEPES, pH 7.5, 20% glycerol, 300 mM NaCl, 0.2% Triton X-100, 10 mM βME). Sample was loaded at a flow rate of 1 mL/min. NS3/4A protease complex-containing fractions were pooled and concentrated to approximately 0.5 mg/ml. The purity of the NS3/4A protease complexes, derived from the BMS, H77 and J4L6S strains, were judged to be greater than 90% by SDS-PAGE and mass spectrometry analyses. The enzyme was stored at −80° C., thawed on ice and diluted prior to use in assay buffer.
The purpose of this in vitro assay was to measure the inhibition of HCV NS3 protease complexes, derived from the BMS strain, H77 strain or J4L6S strain, as described above, by compounds of the present disclosure. This assay provides an indication of how effective compounds of the present disclosure would be in inhibiting HCV NS3 proteolytic activity.
In order to monitor HCV NS3/4A protease activity, an NS3/4A peptide substrate was used. The substrate was RET S1 (Resonance Energy Transfer Depsipeptide Substrate; AnaSpec, Inc. cat #22991)(FRET peptide), described by Taliani et al. in Anal. Biochem. 240(2):60-67 (1996). The sequence of this peptide is loosely based on the NS4A/NS4B natural cleavage site for the HCV NS3 protease except there is an ester linkage rather than an amide bond at the cleavage site. The peptide also contains a fluorescence donor, EDANS, near one end of the peptide and an acceptor, DABCYL, near the other end. The fluorescence of the peptide is quenched by […] resonance energy transfer (RET) between the donor and the acceptor, but as the NS3 protease cleaves the peptide the products are released from RET quenching and the fluorescence of the donor becomes apparent.
The peptide substrate was incubated with one of the three recombinant NS3/4A protease complexes, in the absence or presence of a compound of the present disclosure. The inhibitory effects of a compound were determined by monitoring the formation of fluorescent reaction product in real time using a Cytofluor Series 4000.
Assay buffer: 50 mM HEPES, pH 7.5; 0.15 M NaCl; 0.1% Triton; 15% Glycerol; 10 mM βME. Substrate: 2 μM final concentration (from a 2 mM stock solution in DMSO stored at −20° C.). HCV NS3/4A protease type 1a (1b), 2-3 nM final concentration (from a 5 μM stock solution in 25 mM HEPES, pH 7.5, 20% glycerol, 300 mM NaCl, 0.2% Triton-X100, 10 mM βME). […]

As to `C=C[C@@H]1C[C@]1(NC(=O)[C@@H]1C[C@@H](OC(=O)c2ccccc2)CN1C(=O)[C@@H](NC(=O)OC(C)(C)C)C(C)(C)C)C(=O)NS(=O)(=O)C1CC1` [Compound 1], the IC50 in test [1] was more than 200000 nM; in test [2] (read-out: Activity Range (IC50), NS3/4A BMS strain), 1 to 50 nM; in test [2] (read-out: IC50 against the NS3/4A BMS strain in the enzyme assay, BMS strain), 13 nM.
